Source: patent US9423396B2, “Bodipy structure fluorescence probes for diverse biological applications” (National University of Singapore, priority 2011, dated 2016)

Test: Spectroscopic measurements (absorption, emission, quantum yield, extinction coefficient)
Assay type: physicochemical
[1] = BDNCA library, extinction coefficient; in M-1 cm-1 (unit assumed)
[2] = BDNCA library, fluorescence emission
[3] = BDNCA library, difference emission minus absorption

SMILES | Qunt. Yield (BDNCA library) | Abs (BDNCA library, absorption) | ε [1] | Flu [2] | Flu-Abs [3] | Abs (absorption maximum, BDNCA library) | Flu-Abs (difference of emission and absorption maxima) | ε (extinction coefficient, BDNCA library; in M-1 cm-1 (unit assumed)) | Flu (fluorescence emission maximum, BDNCA library) | Qunt. Yield (quantum yield, BDNCA library)
CC1=CC(/C=C/c2ccc(N(C)CCC#N)cc2)=[N+]2C1=C(c1ccc(NC(=O)CCl)cc1)c1cccn1[B-]2(F)F [BDNCA-3] | weak | 605 nm | 73,593 | weak |  |  |  |  |  | 
CC1=CC(/C=C/c2ccc(OCc3ccccc3)c(OCc3ccccc3)c2)=[N+]2C1=C(c1ccc(NC(=O)CCl)cc1)c1cccn1[B-]2(F)F [BDNCA-4] | 0.18 | 570 nm | 79,908 | 611 | 41 |  |  |  |  | 
CC1=CC(/C=C/c2c3ccccc3cc3ccccc23)=[N+]2C1=C(c1ccc(NC(=O)CCl)cc1)c1cccn1[B-]2(F)F [BDNCA-6] | weak | 536 nm | 41,465 | weak |  |  |  |  |  | 
COc1ccc(/C=C/C2=[N+]3C(=C(c4ccc(NC(=O)CCl)cc4)c4cccn4[B-]3(F)F)C(C)=C2)cc1OCc1ccccc1 [BDNCA-7] | 0.19 | 570 nm | 87,872 | 616 | 46 |  |  |  |  | 
CC1=CC(/C=C/c2ccc(-n3ccnc3)cc2)=[N+]2C1=C(c1ccc(NC(=O)CCl)cc1)c1cccn1[B-]2(F)F [BDNCA-8] | 0.04 | 562 nm | 29,108 | 582 | 20 |  |  |  |  | 
Cc1cccc(/C=C/c2cc(C)c3n2[B-](F)(F)[N+]2=CC=CC2=C3c2ccc(NC(=O)CCl)cc2)c1 [BDNCA-9] | 0.10 | 556 nm | 47,780 | 575 | 19 |  |  |  |  | 
CC1=CC(/C=C/c2ccc(Cl)cc2)=[N+]2C1=C(c1ccc(NC(=O)CCl)cc1)c1cccn1[B-]2(F)F [BDNCA-12] | 0.10 | 557 nm | 49,428 | 576 | 19 |  |  |  |  | 
CC1=CC(/C=C/c2ccc(N(c3ccccc3)c3ccccc3)cc2)=[N+]2C1=C(c1ccc(NC(=O)CCl)cc1)c1cccn1[B-]2(F)F [BDNCA-14] |  | 599 nm | 35,149 |  |  |  |  |  |  | 
CC1=CC(/C=C/c2ccc(C#N)cc2)=[N+]2C1=C(c1ccc(NC(=O)CCl)cc1)c1cccn1[B-]2(F)F [BDNCA-15] | 0.13 | 560 nm | 49,977 | 578 | 18 |  |  |  |  | 
CCCCN(CCCC)c1ccc(/C=C/C2=[N+]3C(=C(c4ccc(NC(=O)CCl)cc4)c4cccn4[B-]3(F)F)C(C)=C2)cc1 [BDNCA-17] | weak | 627 nm | 52,998 | weak |  |  |  |  |  | 
CC1=CC(/C=C/c2ccc(C(C)C)cc2)=[N+]2C1=C(c1ccc(NC(=O)CCl)cc1)c1cccn1[B-]2(F)F [BDNCA-19] | 0.13 | 558 nm | 61,236 | 580 | 22 |  |  |  |  | 
CC1=CC(/C=C/c2cccc(Oc3ccccc3)c2)=[N+]2C1=C(c1ccc(NC(=O)CCl)cc1)c1cccn1[B-]2(F)F [BDNCA-20] | 0.11 | 556 nm | 51,625 | 576 | 20 |  |  |  |  | 
CC1=CC(/C=C/c2cccc3ccccc23)=[N+]2C1=C(c1ccc(NC(=O)CCl)cc1)c1cccn1[B-]2(F)F [BDNCA-25] | 0.09 | 566 nm | 32,952 | 594 | 28 |  |  |  |  | 
CC1=CC(/C=C/c2ccccc2)=[N+]2C1=C(c1ccc(NC(=O)CCl)cc1)c1cccn1[B-]2(F)F [BDNCA-27] | 0.11 | 554 nm | 73,318 | 577 | 23 |  |  |  |  | 
COc1cc(/C=C/C2=[N+]3C(=C(c4ccc(NC(=O)CCl)cc4)c4cccn4[B-]3(F)F)C(C)=C2)cc(Cl)c1O [BDNCA-29] | 0.01 | 567 nm | 25,812 | 597 | 30 |  |  |  |  | 
COc1ccc(/C=C/c2cc(C)c3n2[B-](F)(F)[N+]2=CC=CC2=C3c2ccc(NC(=O)CCl)cc2)c2ccccc12 [BDNCA-32] | 0.06 | 583 nm | 27,735 | 649 | 66 |  |  |  |  | 
CC1=CC(/C=C/c2ccc(C)c3ccccc23)=[N+]2C1=C(c1ccc(NC(=O)CCl)cc1)c1cccn1[B-]2(F)F [BDNCA-36] | 0.08 | 572 nm | 30,755 | 610 | 38 |  |  |  |  | 
CC1=CC(/C=C/c2csc3ccccc23)=[N+]2C1=C(c1ccc(NC(=O)CCl)cc1)c1cccn1[B-]2(F)F [BDNCA-37] | 0.14 | 567 nm | 71,121 | 600 | 33 |  |  |  |  | 
CC(=O)Oc1ccc(/C=C/c2cc(C)c3n2[B-](F)(F)[N+]2=CC=CC2=C3c2ccc(NC(=O)CCl)cc2)cc1 [BDNCA-41] |  |  |  |  |  | 565 nm | 29 | 47,780 | 594 | 0.13
COc1ccc(Oc2cccc(/C=C/C3=[N+]4C(=C(c5ccc(NC(=O)CCl)cc5)c5cccn5[B-]4(F)F)C(C)=C3)c2)cc1 [BDNCA-42] | 0.08 | 556 nm | 54,645 | 577 | 21 |  |  |  |  | 
COc1cc(C=CC=CC2=[N+]3C(=C(c4ccc(NC(=O)CCl)cc4)c4cccn4[B-]3(F)F)C(C)=C2)ccc1OC(C)=O [BDNCA-44] | weak | 580 nm | 12,632 | weak |  |  |  |  |  | 
CCCCCCOc1ccc(/C=C/C2=[N+]3C(=C(c4ccc(NC(=O)CCl)cc4)c4cccn4[B-]3(F)F)C(C)=C2)cc1 [BDNCA-45] | 0.13 | 566 nm | 82,929 | 598 | 32 |  |  |  |  | 
CCCCOc1ccc(/C=C/C2=[N+]3C(=C(c4ccc(NC(=O)CCl)cc4)c4cccn4[B-]3(F)F)C(C)=C2)cc1 [BDNCA-46] | 0.10 | 566 nm | 42,563 | 598 | 32 |  |  |  |  | 
C=CCOc1ccc(/C=C/C2=[N+]3C(=C(c4ccc(NC(=O)CCl)cc4)c4cccn4[B-]3(F)F)C(C)=C2)cc1 [BDNCA-48] | 0.07 | 566 nm | 44,211 | 597 | 31 |  |  |  |  | 
CCOC(OCC)c1ccc(/C=C/C2=[N+]3C(=C(c4ccc(NC(=O)CCl)cc4)c4cccn4[B-]3(F)F)C(C)=C2)cc1 [BDNCA-49] | 0.03 | 564 nm | 20,046 | 581 | 17 |  |  |  |  | 
Cc1cc(/C=C/c2ccc(OCc3ccc(Br)cc3)cc2)n2c1C(c1ccc(NC(=O)CCl)cc1)=C1C=CC=[N+]1[B-]2(F)F [BDNCA-52] | 0.05 | 556 nm | 36,247 | 580 | 24 |  |  |  |  | 
CCOc1ccc(/C=C/C2=[N+]3C(=C(c4ccc(NC(=O)CCl)cc4)c4cccn4[B-]3(F)F)C(C)=C2)cc1OCC [BDNCA-53] | 0.06 | 570 nm | 31,579 | 621 | 51 |  |  |  |  | 
COc1ccc(Br)cc1/C=C/c1cc(C)c2n1[B-](F)(F)[N+]1=CC=CC1=C2c1ccc(NC(=O)CCl)cc1 [BDNCA-54] | 0.07 | 562 nm | 38,169 | 581 | 19 |  |  |  |  | 
CC1=CC(/C=C/c2cc(Cl)cc(Cl)c2O)=[N+]2C1=C(c1ccc(NC(=O)CCl)cc1)c1cccn1[B-]2(F)F [BDNCA-57] | 0.02 | 561 nm | 23,066 | 577 | 16 |  |  |  |  | 
COc1ccc2ccccc2c1/C=C/C1=[N+]2C(=C(c3ccc(NC(=O)CCl)cc3)c3cccn3[B-]2(F)F)C(C)=C1 [BDNCA-61] | 0.08 | 581 nm | 33,776 | 627 | 46 |  |  |  |  | 
